The values that follow come from ChEMBL document CHEMBL1275597, “In vitro activity of the aminoglycoside antibiotic arbekacin against Acinetobacter baumannii-calcoaceticus isolated from war-wounded patients at Walter Reed Army Medical Center” (Antimicrob Agents Chemother, 2010).

Values after ≈ are worked out from the molar mass of the structure shown. Active and inactive are the calls of the source. No cut-off for these calls is given here.

Data set [1] is described as follows: (§1) Antimicrobial activity against Acinetobacter baumannii-calcoaceticus obtained from war-wounded patient assessed as susceptible isolates. The class given is functional, Acinetobacter calcoaceticus/baumannii complex.
The nature of data set [2]: Antimicrobial activity against Acinetobacter baumannii-calcoaceticus […] in presence of imipenem. The format is functional, Acinetobacter calcoaceticus/baumannii complex.
Data set [3] relates to Acinetobacter calcoaceticus/baumannii complex. Described as §1. The format is functional.
Data set [4] shares this test system. The data set can be described thus: Antimicrobial activity against Acinetobacter baumannii-calcoaceticus obtained from war-wounded patient assessed as susceptible isolates by tube dilution assay. The class given is functional.
The subject of the next data set is Homo sapiens. The data set can be described thus: Cmax in war-wounded patient infected with Acinetobacter baumannii-calcoacetius at 5 to 7 mg/kg/day. The format is ADME, organism-based. To be noted: in vivo.
Data set [5] can be described thus: Antimicrobial activity against Acinetobacter baumannii-calcoaceticus obtained from war-wounded patient assessed as susceptible isolates in presence of beta-lactamase inhibitor Sulbactam. The format is functional, Acinetobacter calcoaceticus/baumannii complex.
The nature of data set [6]: Cmax in war-wounded patient infected with Acinetobacter baumannii-calcoacetius at 2 to 3 mg/kg/day. Conditions: human, in vivo. The class given is ADME, organism-based.
Data set [7] in a line: Antimicrobial activity against Acinetobacter baumannii-calcoaceticus obtained from war-wounded patient. The class given is functional. To be noted: Acinetobacter calcoaceticus/baumannii complex.
Data set [8] is described as follows: Antimicrobial activity against Acinetobacter baumannii-calcoaceticus obtained from war-wounded patient assessed as zone of inhibition at 128 ug/ml by disk diffusion method. The format is functional. To be noted: Acinetobacter calcoaceticus/baumannii complex; read-out: IZ.
Data set [9] can be described thus: Antimicrobial activity against Acinetobacter baumannii-calcoaceticus […] in presence of meropenem. The format is functional, Acinetobacter calcoaceticus/baumannii complex.

As for `O=C(O)c1cn(C2CC2)c2cc(N3CCNCC3)c(F)cc2c1=O` [CIPROFLOXACIN], the Activity in data set [1] was 14.5%.
`C[C@H]1COc2c(N3CCN(C)CC3)c(F)cc3c(=O)c(C(=O)O)cn1c23.C[C@H]1COc2c(N3CCN(C)CC3)c(F)cc3c(=O)c(C(=O)O)cn1c23.O` [LEVOFLOXACIN]: the Activity in data set [1] is listed as 20.5%.
With `C[C@@H](O)[C@H]1C(=O)N2C(C(=O)O)=C(SCCNC=N)C[C@H]12` [IMIPENEM ANHYDROUS], the “fractional inhibitory concentration index (FICI)” value in data set [2] was 0.375. In addition, the Activity in data set [1] is on record as 55%.
Consider `CO/N=C(\C(=O)N[C@@H]1C(=O)N2C(C(=O)[O-])=C(C[N+]3(C)CCCC3)CS[C@H]12)c1csc(N)n1` [CEFEPIME], for which the Activity in [1] is given as 32.7%.
In the case of `COc1c(N2C[C@@H]3CCCN[C@@H]3C2)c(F)cc2c(=O)c(C(=O)O)cn(C3CC3)c12`, in data set [3], the outcome was inactive.
For the molecule `CCN1CCN(C(=O)N[C@@H](C(=O)N[C@@H]2C(=O)N3[C@@H]2SC(C)(C)[C@@H]3C(=O)O)c2ccccc2)C(=O)C1=O` [PIPERACILLIN], the Activity in data set [1] was 9.8%.
With COLISTIN, the Activity in data set [4] is 100%.
Consider `CC(C)(O/N=C(\C(=O)N[C@@H]1C(=O)N2C(C(=O)[O-])=C(C[n+]3ccccc3)CS[C@H]12)c1csc(N)n1)C(=O)O` [CEFTAZIDIME], for which the Activity in data set [1] is 25%.
On to GENTAMICIN [listing 1 of 2 here], for which the Activity in [3] was 14.5%.
As usually defined, the Cmax is the maximum level reached in the sampled fluid or tissue. For the molecule GENTAMICIN [listing 2 of 2 here], in the data set on Homo sapiens, the Cmax is less than 4000 ng/mL.
Regarding `CN(C)c1ccc(O)c2c1C[C@H]1C[C@H]3[C@H](N(C)C)C(O)=C(C(N)=O)C(=O)[C@@]3(O)C(O)=C1C2=O` [MINOCYCLINE], in data set [1], the Activity is 92.6%.
`NCC[C@H](O)C(=O)N[C@@H]1C[C@H](N)[C@@H](O[C@H]2O[C@H](CN)[C@@H](O)[C@H](O)[C@H]2O)[C@H](O)[C@H]1O[C@H]1O[C@H](CO)[C@@H](O)[C@H](N)[C@H]1O` [AMIKACIN]: the Activity in data set [1] is 59%.
Turning to `CC1(C)S[C@@H]2[C@H](NC(=O)[C@H](N)c3ccccc3)C(=O)N2[C@H]1C(=O)O` [AMPICILLIN], the Activity in data set [5] is given as 67.3%.
For the molecule `COc1c(N2CCNC(C)C2)c(F)cc2c(=O)c(C(=O)O)cn(C3CC3)c12` (stereo not drawn) [GATIFLOXACIN], the Activity in data set [1] is on record as 27%.
One may read the MIC as the least concentration at which growth counts as inhibited. For `NCC[C@H](O)C(=O)N[C@@H]1C[C@H](N)[C@@H](O[C@H]2O[C@H](CN)CC[C@H]2N)[C@H](O)[C@H]1O[C@H]1O[C@H](CO)[C@@H](O)[C@H](N)[C@H]1O` [ARBEKACIN], the Cmax in data set [6] was 20000 ng/mL. For the same molecule, in data set [7], the MIC is 2 µg/mL (≈ 3.62 µM). Besides, the zone of inhibition at 128 µg/mL in data set [8] was 13 mm. Also, the Activity in [1] is listed as 86.5%.
With `C[C@@H](O)[C@H]1C(=O)N2C(C(=O)O)=C(S[C@@H]3CN[C@H](C(=O)N(C)C)C3)[C@H](C)[C@H]12` [MEROPENEM], in [9], the “fractional inhibitory concentration index (FICI)” value is 0.5. In addition, the Activity in [1] was 53.7%.
As for POLYMYXIN B, in data set [4], the Activity is 100%.
Regarding `NC[C@H]1O[C@H](O[C@H]2[C@H](O)[C@@H](O[C@H]3O[C@H](CO)[C@@H](O)[C@H](N)[C@H]3O)[C@H](N)C[C@@H]2N)[C@H](N)C[C@@H]1O` [TOBRAMYCIN], the Activity in [1] is recorded as 56%.
